Reference: US10765651B2, “Co-crystals of substituted glycine and uses thereof” (SyneuRx International (Taiwan) Corp., priority 2017, dated 2020)
Values after ≈ are worked out from the molar mass of the structure shown.

Legend:
[1] = Hygroscopicity test, condition 3 (dynamic vapor sorption, 0 to 90 to 0% RH); type: physicochemical; conditions: DVS, 25° C.
Description: Measurement were taken from 0 to 90 to 0% RH at 25° C. with 10% RH per step with equilibration set to dm/dt+0.01%/min for 10 min or 180 min/step.

[2] = Hygroscopicity test, condition 2 (humidity chamber, weight change); type: physicochemical
physchem = conditions: water, thermodynamic from solid

Change In Mass (%) ([1]; RH 0%): 0.0%
Change In Mass (%) ([1]; RH 10%): 0.0%
Change In Mass (%) ([1]; RH 20%): 0.0%
Change In Mass (%) ([1]; RH 30%): 0.0%
Change In Mass (%) ([1]; RH 40%): 0.0%
Change In Mass (%) ([1]; RH 50%): 0.0%
Change In Mass (%) ([1]; RH 60%): 0.0%
Change In Mass (%) ([1]; RH 70%): 38.6%
Change In Mass (%) ([1]; RH 80%): 87.4%
Change In Mass (%) ([1]; RH 90%): 130.9%
Weight ([2]; 30° C., 75% RH, 0 hr): 0.1375 g
Outward (appearance) ([2]; 30° C., 75% RH, 1 hr): 90%
Weight ([2]; 30° C., 75% RH, 1 hr): 0.1585 g
Weight change (%), water absorbed ([2]; 30° C., 75% RH, 1 hr): (+15.3%)
Weight ([2]; 30° C., 75% RH, 2 hr): 0.1942 g
Weight change (%), water absorbed ([2]; 30° C., 75% RH, 2 hr): (+41.2%)
Outward (appearance) ([2]; 30° C., 75% RH, 3 hr): Liquid
Weight ([2]; 30° C., 75% RH, 3 hr): 0.2146 g
Weight change (%), water absorbed ([2]; 30° C., 75% RH, 3 hr): (+56.1%)
Weight ([2]; 30° C., 75% RH, 5 hr): 0.2403 g
Weight change (%), water absorbed ([2]; 30° C., 75% RH, 5 hr): (+74.8%)
Weight ([2]; 30° C., 75% RH, 24 hr): 0.2884 g
Weight change (%), water absorbed ([2]; 30° C., 75% RH, 24 hr): (+109.7%)
Weight ([2]; 30° C., 75% RH, 48 hr): 0.2885 g
Weight change (%), water absorbed ([2]; 30° C., 75% RH, 48 hr): (+109.8%)
Weight ([2]; 30° C., 75% RH, 72 hr): 0.2885 g
Weight change (%), water absorbed ([2]; 30° C., 75% RH, 72 hr): (+109.8%)
Outward (appearance) ([2]; dry before): White
Weight ([2]; dry before): 0.1375 g
Weight change (%) ([2]; dry before (change on drying to 0 hr weight)): (−0%)
solubility (physchem): 660 mg/mL (≈ 7410 mM)
SMILES: CNCC(=O)O [N-MG, N-methylglycine, reference compound]
